Reference: patent publication US4820695A, “C-20-dihydro-deoxy-(cyclic amino)-derivatives of macrolide antibiotics” (priority 1987, dated 1989)
Values after ≈ are worked out from the molar mass of the structure shown. Where two headings read alike, the source gives them in different places.

Assays:
Escherichia coli EC14 = assay: MIC, standard agar-dilution assay (Table IX); assay type: cell-based; details: read-out: MIC
Mycoplasma hyorhinis 29E = assay: MIC, broth-dilution microtiter test (Table X); assay type: cell-based; details: read-out: MIC
Source text: (§1) The MIC's in Table X were obtained using conventional broth-dilution microtiter tests.

[1] = system: Mycoplasma gallisepticum 29C; assay: MIC, broth-dilution microtiter test (Table X); assay type: cell-based; details: Mycoplasmoides gallisepticum, read-out: MIC
Source text: as §1

Streptococcus sp. 19F = assay: MIC, broth-dilution microtiter test (Table X); assay type: cell-based; details: read-out: MIC
Source text: as §1

[2] = system: Pasteurella hemolytica 22C; assay: MIC, broth-dilution microtiter test (Table X); assay type: cell-based; details: read-out: MIC
Source text: as §1

[3] = system: Mycoplasma hyopneumoniae S5972; assay: MIC, broth-dilution microtiter test (Table X); assay type: cell-based; details: Mesomycoplasma hyopneumoniae, read-out: MIC
Source text: as §1

Staphylococcus aureus = assay: MIC, broth-dilution microtiter test (Table X); assay type: cell-based; details: read-out: MIC
Source text: as §1

[4] = system: Pasteurella multocida 60A; assay: MIC, broth-dilution microtiter test (Table X); assay type: cell-based; details: Avian isolate, read-out: MIC
Source text: as §1

[5] = system: Pasteurella multocida 17E; assay: MIC, broth-dilution microtiter test (Table X); assay type: cell-based; details: Bovine isolate, read-out: MIC
Source text: as §1

Mycoplasma synoviae 40A = assay: MIC, broth-dilution microtiter test (Table X); assay type: cell-based; details: Mycoplasmopsis synoviae, read-out: MIC
Source text: as §1

Escherichia coli TEM = assay: MIC, standard agar-dilution assay (Table IX); assay type: cell-based; details: read-out: MIC
[6] = system: Staphylococcus aureus V41; assay: MIC, standard agar-dilution assay (Table IX); assay type: cell-based; details: Staphylococcus aureus V41, Penicillin-resistant strain, read-out: MIC
Pasteurella multocida [7] = assay: Pasteurella infection in one-day-old chicks, subcutaneous administration (Table XII); assay type: in vivo; details: Administered subcutaneously, 30 mg/kg × 2, 1 and 4 hours post-challenge
In short: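 Treatment was 30 mg/kg s.c., given twice (1 and 4 h after infection). The infection itself was induced in day-old chicks by s.c. injection of 0.1 ml of avian Pasteurella multocida culture (20-h tryptose broth, diluted 10^-4).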

[8] = system: Streptococcus pneumoniae Park I; assay: MIC, standard agar-dilution assay (Table IX); assay type: cell-based; details: Streptococcus pneumoniae Park I; agar-dilution; read-out: MIC
[9] = system: Staphylococcus epidermidis 222; assay: MIC, standard agar-dilution assay (Table IX); assay type: cell-based; details: read-out: MIC
Staphyloccus aureus X1.1 = assay: MIC, standard agar-dilution assay (Table IX); assay type: cell-based, Staphylococcus aureus; details: Staphylococcus aureus, read-out: MIC
[10] = system: Streptococcus Group D X66; assay: MIC, standard agar-dilution assay (Table IX); assay type: cell-based; details: read-out: MIC
[11] = system: Streptococcus Group D 2041; assay: MIC, standard agar-dilution assay (Table IX); assay type: cell-based; details: GROUPD2041, read-out: MIC
Klebsiella X26 = assay: MIC, standard agar-dilution assay (Table IX); assay type: cell-based; details: read-out: MIC
[12] = system: Haemophilus influenzae 76; assay: MIC, standard agar-dilution assay (Table IX); assay type: cell-based; details: Haemophilus influenzae 76, Ampicillin-resistant strain, read-out: MIC
[13] = system: Streptococcus pyogenes C203; assay: MIC, standard agar-dilution assay (Table IX); assay type: cell-based; details: read-out: MIC
[14] = system: Haemophilus influenzae C.L.; assay: MIC, standard agar-dilution assay (Table IX); assay type: cell-based; details: Ampicillin-sensitive strain, read-out: MIC
[15] = Titratable groups in 66% aqueous DMF (Tables XIV-XVI); assay type: physicochemical
Source text: ^c Run in 66% aqueous DMF
^d Run in 66% aqueous DMF

Pasteurella multocida [16] = assay: Pasteurella infection in one-day-old chicks, medicated drinking water (Table XIII); assay type: in vivo; details: Administered in the available drinking water at 2 g/gal
Description: Many of the C-20 modified derivatives of this invention have also shown in vivo antibacterial activity against infections induced by gram-negative bacteria. Tables XII and XIII summarize the results of tests in which illustrative compounds were evaluated against a Pasteurella infection in one-day-old chicks. The compounds were administered parenterally or orally after challenge of the chicks with Pasteurella multocida (0.1 ml of a 10^-4 dilution of a twenty-hour tryptose broth culture of an avian P. multocida given subcutaneously). In these tests, unless indicated otherwise, all non-medicated infected chicks died within 24 hours of Pasteurella challenge. In the tests summarized in Table XII, the compounds were administered by subcutaneous injection at a dosage of 30 mg/kg, 1 and 4 hours post-challenge of the chicks with P. multocida. In the tests summarized in Table XIII the compounds were administered in medicated drinking water (at a level of 2 g/gal) available from 4 to 20 hours prior to challenge of the chicks with P. multocida and during the 3 -day test period.
^a Administered in the available drinking water at a concentration of […]

[17] = system: Staphylococcus epidermidis EPI1; assay: MIC, standard agar-dilution assay (Table IX); assay type: cell-based; details: Staphylococcus epidermidis EPI1; agar-dilution; read-out: MIC
[18] = system: Staphylococcus aureus S13E; assay: MIC, standard agar-dilution assay (Table IX); assay type: cell-based; details: Staphylococcus aureus, S13E
Escherichia coli N10 = assay: MIC, standard agar-dilution assay (Table IX); assay type: cell-based; details: read-out: MIC
[19] = system: Staphylococcus aureus X400; assay: MIC, standard agar-dilution assay (Table IX); assay type: cell-based; details: Staphylococcus aureus X400, Methicillin-resistant strain, read-out: MIC
[20] = system: Streptococcus pyogenes C203; assay: ED50 in mice experimentally infected with S. pyogenes C203 (Table XI); assay type: in vivo; details: Streptococcus pyogenes, doses given 1 and 4 hours postinfection, read-out: ED50
In short: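 Protective ED50 (mg/kg × 2) was determined as the dose sparing half the animals. Test compound was given twice, at 1 and 4 hours after experimental S. pyogenes C203 infection of mice.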

| SMILES | MIC (Escherichia coli EC14) [µg/mL] | MIC (Mycoplasma hyorhinis 29E) [µg/mL] | MIC [1] [µg/mL] | MIC (Streptococcus sp. 19F) [µg/mL] | MIC [2] [µg/mL] | MIC [3] [µg/mL] | MIC (Staphylococcus aureus) [µg/mL] | MIC [4] [µg/mL] | MIC [5] [µg/mL] | MIC (Mycoplasma synoviae 40A) [µg/mL] | MIC (Escherichia coli TEM) [µg/mL] | MIC [6] [µg/mL] | Number of Deaths/Number Treated (Pasteurella multocida [7]) | MIC [8] [µg/mL] | MIC [9] [µg/mL] | MIC (Staphyloccus aureus X1.1) [µg/mL] | MIC [10] [µg/mL] | MIC [11] [µg/mL] | MIC (Klebsiella X26) [µg/mL] | MIC [12] [µg/mL] | also measured |
| --- | --- | --- | --- | --- | --- | --- | --- | --- | --- | --- | --- | --- | --- | --- | --- | --- | --- | --- | --- | --- | --- |
| CCC1OC(=O)CC(O)C(C)C(OC2OC(C)C(O)C(N(C)C)C2O)C(CCN2C3CCCCC3C3CCCCC32)CC(C)C(=O)C=CC(C)=CC1COC1OC(C)C(O)C(OC)C1OC (stereo not shown) [Compound D25, 20-DH-DO-20-(Dodecahydrocarbazol-9-yl) desmycosin] | 128 (≈ 137 µM) | 12.5 (≈ 13.4 µM) | 0.39 (≈ 0.417 µM) | 3.12 (≈ 3.34 µM) | 3.12 (≈ 3.34 µM) | 0.39 (≈ 0.417 µM) | 3.12 (≈ 3.34 µM) | 12.5 (≈ 13.4 µM) | 12.5 (≈ 13.4 µM) | 0.097 (≈ 0.104 µM) | 32 (≈ 34.2 µM) | 0.5 (≈ 0.535 µM) | 0/10 | 0.5 (≈ 0.535 µM) | 0.25 (≈ 0.267 µM) | 0.5 (≈ 0.535 µM) | 4 (≈ 4.28 µM) | 4 (≈ 4.28 µM) | 128 (≈ 137 µM) | 8 (≈ 8.55 µM) | MIC [13]: 0.25 µg/mL (≈ 0.267 µM); MIC [14]: 16 µg/mL (≈ 17.1 µM); pKa ([15]; Titratable groups): 9.95; pKa ([15]; Titratable groups (first value)): 7.95; Number of Deaths/Number Treated (Pasteurella multocida [16]): 7/10; MIC [17]: 0.5 µg/mL (≈ 0.535 µM); MIC [18]: 0.5 µg/mL (≈ 0.535 µM); MIC (Escherichia coli N10): 128 µg/mL (≈ 137 µM); MIC [19]: 1 µg/mL (≈ 1.07 µM) |
| CCC1OC(=O)CC(O)C(C)C(OC2OC(C)C(O)C(N(C)C)C2O)C(CCN2CCc3ccccc3C2)CC(C)C(=O)C=CC(C)=CC1COC1OC(C)C(O)C(OC)C1OC (stereo not shown) [Compound D12, 20-DH-DO-20-(1,2,3,4-Tetrahydroisoquinolin-2-yl)desmycosin] | 128 (≈ 144 µM) | 12.5 (≈ 14.1 µM) | ≤ 0.048 | 3.12 (≈ 3.51 µM) | 3.12 (≈ 3.51 µM) | 3.12 (≈ 3.51 µM) | 1.56 (≈ 1.75 µM) | 12.5 (≈ 14.1 µM) | 6.25 (≈ 7.03 µM) | 0.39 (≈ 0.439 µM) | 64 (≈ 72 µM) | 0.5 (≈ 0.562 µM) | 9/10 | 1 (≈ 1.12 µM) | 0.25 (≈ 0.281 µM) | 0.5 (≈ 0.562 µM) | 4 (≈ 4.5 µM) | 8 (≈ 9 µM) | 32 (≈ 36 µM) | 8 (≈ 9 µM) | ED50 ([20]; C203, Oral): < 6.3 mg/kg; ED50 ([20]; C203, sc, Subcutaneous): 2 mg/kg; MIC [13]: 0.5 µg/mL (≈ 0.562 µM); MIC [14]: 16 µg/mL (≈ 18 µM); Number of Deaths/Number Treated (Pasteurella multocida [16]): 8/10; MIC [17]: 0.5 µg/mL (≈ 0.562 µM); MIC [18]: 0.5 µg/mL (≈ 0.562 µM); MIC (Escherichia coli N10): > 128 µg/mL; MIC [19]: 0.5 µg/mL (≈ 0.562 µM) |
